Molecules are shown by their SMILES.

Melting point data for 91 compounds are collected here from a melting point compilation (Tetko et al.; mined from patent text by program, amines drawn as free bases though some values may be those of a salt).

`CC(C)c1nc(CNS(C)(=O)=O)n(C)c1Sc1cc(Cl)cc(Cl)c1` registered a melting point of 116 to 118 °C.
For `N#Cc1cc(C(=O)NNC(=O)c2occc2-c2ccc(Oc3ccccc3)cc2)ccc1O` the value was 199 to 200 °C.
For `OC(c1cccnc1)c1ccc(Cl)cc1Cl` (stereo unspecified) the value was 108 to 111 °C; for `CNc1ccc(-c2nc(N3CCOCC3)c3sc(C(C)(C)Nc4ncc(C(=O)NO)cn4)cc3n2)cn1`, 200 to 205 °C.
For `CCC(CC)(CC(=O)Nc1cccc(OCc2ccc3ccc(OC)cc3n2)c1)C(=O)O`, the melting point fell in the range of 96 to 97 °C.
To `CCC(=O)C1CCC2C3CCC4CC(=O)CCC4(C)C3C(=O)CC12C` (stereo unspecified) belongs 148 °C; to `O=c1[nH]c2ccc(Cl)cc2c(=O)o1`, 200 °C; to `Fc1ccc(C(=Cc2ccccc2Cl)CBr)cc1`, 68 °C.
To `CCCCCCCCCCCCc1ccc(NC2CCCc3ccccc32)cc1` (stereo unspecified) belongs 34 °C; to `CC1NN2C=CC=NC2C1C#N` (stereo unspecified), 170 to 172 °C; to `COc1ccc(S(=O)(=O)Nc2c(Cl)cccc2Cl)c2c1[nH]c1ccccc12`, 201 to 205 °C.
To `CCOC(=O)C1=C(C=O)NC(C(F)(F)F)=C(C(=O)OCC)C1c1cccc2nonc12` (stereo unspecified) belongs 94 to 95 °C; to `CCCS(=O)c1ncn(C(=O)N(CC)CC)n1` (stereo unspecified), 50.5 to 51.5 °C; to `Cc1nc2c(CN3CCOCC3)cc(Cl)nn2c1C(=O)c1ccc(Cl)cc1F`, 145 to 147 °C.
For `CCOC(=O)C(=CNC1CC1)C(=O)c1cc(F)c(F)c(Cl)c1F`, the melting point lay in the range of 78 to 80 °C.
With `Cc1cc(C2=NNC(=O)Cc3cc4c(cc32)OCO4)ccc1[N+](=O)[O-]`, the melting point was 275 to 277 °C.
Consider `O=C(c1ccc(F)cc1)C1CCN(Cc2ccc3ccccc3c2)CC1`, for which the melting point is 131 to 134 °C.
For `Brc1cn2cncc2s1` the value was 77 to 78 °C.
To `COCc1nc2c(NCc3c(C)cccc3C)cc(Br)cc2n1C` belongs 143 to 145 °C.
To `CCCNCC(O)c1cccc(Br)c1` (stereo unspecified) belongs 79.7 to 81.4 °C; to `Cc1nccn1CCCNC(=O)c1cccnc1Cl`, 126 to 128 °C.
For the compound `COc1cc(Cc2ccc(N)c(C#N)c2)cc(OC)c1`, the melting point was in the range of 105 to 107 °C.
As to `O=C(O)CCn1ccn([C@H]2CCc3c(F)cc(F)cc3C2)c1=S`, the melting point lay in the range of 182 to 184 °C.
In turn, `CN(C)c1ccc2c(c1)OCCC2=O` showed a melting point of 109 to 120 °C.
As to `COc1cccc(N2C(CO)=Cc3ccsc3S2(=O)=O)c1`, the melting point is 141 to 143 °C.
In the case of `O=C(Oc1ccccc1)OC1C2=C(OCCS2)C(=O)N1c1ccc2ccc(Cl)nc2n1` (stereo unspecified), the melting point turned out to be 270 °C.
`CNc1nc2ccn(Cc3ccc(F)cc3)cc-2n1` had a melting point of 210 °C.
Regarding `CCOC(=O)C(CC(=O)c1ccc(Oc2ccc(Br)cc2)cc1)SC(C)=O` (stereo unspecified), the melting point lay in the range of 67 to 68.5 °C.
For `O=C1NCCSC1=NO`, the melting point fell in the range of 233 to 235 °C.
To `c1csc(C2NCCNCc3ccccc32)c1` (stereo unspecified) belongs 148 °C.
`CCn1ccc(=O)c(O)c1C` registered a melting point of 204 to 205 °C.
Consider `CCOC(=O)CCc1cc(Cl)c(Cl)cc1C(=O)CCCNC(C)=O`, for which the melting point lay within 63 to 65 °C.
To `COc1cc2c(cc1N1CCN(CC3=CC4=CSCC4=C3)CC1)OCC2` belongs 156 to 158 °C; to `CC1(C)OC(=C(C#N)C#N)C(C#N)=C1C=Cc1c(F)c(F)c(N2C3C4CCC(C4)C32)c(F)c1F` (stereo unspecified), 233 °C; to `CC(C)(C)n1ncc(SCc2ccc(Cl)cc2)c(Cl)c1=O`, 142 to 143 °C.
To `CS(=O)(=O)c1ccc(-c2cnn(Cc3ccc4cc(F)ccc4n3)c(=O)c2-c2ccc(F)cc2)cc1` belongs 116 to 119 °C; to `O=c1[nH]c2cc(Cl)ccc2c(O)c1-c1cccc(Cl)c1`, more than 300 °C.
To `c1ccc(Cc2nnn[nH]2)c(COc2ccc3oc(-c4nc5c(s4)NCCCC5)cc3c2)c1` belongs 110 to 118 °C; to `Cn1nc(C(O)c2ccccc2)nc1NCC(O)COc1cccc(CN2CCCCC2)c1` (stereo unspecified), 154 to 157 °C.
Regarding `O=C1c2cc(CCCCOC(=O)C(F)(F)F)ccc2OCc2sccc21`, the melting point lay within 65.5 to 67.5 °C.
The compound `NC(=O)CCCCC(=O)c1ccccc1` gave a melting point of 113 to 114 °C.
To `Cn1cc(C2=C(c3c4n(c5ccccc35)CCCC(CO)C4)C(=O)NC2=O)c2ccccc21` (stereo unspecified) belongs 268 to 270 °C.
For the compound `COc1ccc(C(=O)Nc2ccc(F)c(F)c2)cc1NC(=S)Nc1cc(Cl)cc(Cl)c1`, the melting point fell in the range of 180 to 183 °C.
For `CC(=O)N1CCc2cc(O)c(C(F)(F)F)cc21` the value was 244 to 247 °C.
The compound `Cc1oc(-c2ccccc2)nc1CCOc1ccc(C[C@@H](C(=O)O)N2CCN(S(=O)(=O)c3ccccc3F)CC2)cc1` showed a melting point of 170 to 172 °C.
With `O=[N+]([O-])c1cc([N+](=O)[O-])c(Nc2ccc3ccccc3c2[N+](=O)[O-])c(C(F)(F)F)c1`, the melting point is 213 to 215 °C.
`O=C1c2ccccc2CCC1c1ccccc1` (stereo unspecified) had a melting point of 69 °C.
For `Oc1c(Br)cc2oc3ccccc3c2c1Br`, the melting point was in the range of 176 to 178 °C.
`Cc1cc(N)c(I)c(C)n1` registered a melting point of 103 to 110 °C.
To `CCCOc1ccccc1-c1nc2nc(NC3CC3)ncc2c(=O)[nH]1` belongs 208 °C; to `Cc1cc(NC(=O)OC(C)(C)C)c(C)c(C)c1O`, 158 to 161 °C.
To `O=C(c1ccccc1)c1ccc(OCCCCCCCCBr)cc1` belongs 59 to 61 °C.
Compound `CCCCCS(=O)(=O)NC(=O)CCc1cc(OCCOC)nn1Cc1ccc(Cl)cc1Cl` returned a melting point of 108 to 112 °C.
`CS(=O)(=O)c1cc(C(=O)O)ccc1Oc1ccc(C(=S)Cc2ccc3ccccc3n2)cc1`: the melting point was 210 to 214 °C.
`COC(=O)c1cccc(-c2nc(-c3ccc(F)c(F)c3)cs2)c1` had a melting point of 147 to 148 °C.
For `CCOC(=O)c1ccccc1SN(C(=O)NC(=O)c1ccccc1Cl)c1ccc(Oc2ccc(C(F)(F)F)cc2Cl)cc1` the value was 98 to 100 °C; for `CSc1nc(=O)n(Cc2ccccc2)c2nc[nH]c12`, 215 to 216 °C.
For `NS(=O)(=O)c1ccc(NC(=O)CNc2ccccc2)cc1C(F)(F)F` the value was 172 °C; for `O=C(NCCC(O)(c1ccccc1)c1ccccc1)c1ccccc1`, 145 to 146 °C.
Compound `Cc1ccc2c(c1)C(=O)CC21CNC(=O)C1` (stereo unspecified) had a melting point of 162 to 164 °C.
To `CCOC(=O)C(=O)N(c1ccccc1[N+](=O)[O-])C(C)(C)C` belongs 73 to 74 °C; to `O=C(NC1CCc2ccc([N+](=O)[O-])cc2C1)c1ccccc1` (stereo unspecified), 194 to 198 °C; to `CC1(C)CC(C2=NN(CC#N)C(=O)N(/N=C/c3cncc(F)c3)C2)=NO1`, 195 to 197 °C.
To `CN(Cc1ccc(Cl)cc1)c1ccc(S(=O)CCCCCC(=O)O)cc1` (stereo unspecified) belongs 109 to 111 °C.
To `CC(C)(C)c1ccc(C(=O)C(Cl)Cl)cc1` belongs 47 to 49 °C; to `C=CCN1C(=O)N(Cc2c(C)c(CN3C(=O)N(CC=C)C(=O)C3(C)C)c(C)c(CN3C(=O)N(CC=C)C(=O)C3(C)C)c2C)C(C)(C)C1=O`, 150 to 155 °C; to `CSc1nc(N)nc2c1ncn2COCCO`, 188 to 191 °C.
Compound `CCCCCCCCNC(=O)n1nc(Oc2c(Cl)cc(C(F)(F)F)cc2Cl)cc1C` showed a melting point of 43 to 45 °C.
To `CC1(C)CCC(C)(C)c2cc3c(cc21)CCc1c(-c2ccc(C(=O)O)cc2)c[nH]c1-3` belongs 268 to 270 °C; to `O=C(CCCCOc1ccc(C2=NCCO2)cc1)c1ccc(Cl)s1`, 143 to 144 °C.
For `COc1ccc(C(=O)CC(=O)C(F)(F)C(F)(F)F)cc1OC` the value was 72 °C; for `COc1ccc(C2(C#N)CC=C(C(=O)O)CC2)cc1OC1CCCC1` (stereo unspecified), 161 to 163 °C; for `CC(C)(C)OC(=O)N[C@@H](Cc1cc(F)cc(F)c1)C(=O)CCl`, 139 °C.
For `Cc1cc2n(C)c3ccncc3c(=O)n2n1` the value was more than 300 °C.
For `O=C(c1ccccc1)c1ccc(OCCO)cc1`, the melting point amounted to 82 °C.
For `CN1C(=O)Nc2ccc(-c3cccc(Cl)c3)cc2C1(C)C1CC1` (stereo unspecified) the value was 193 to 194 °C; for `CCCCCCNc1cc(-c2nc(=O)c3ccccc3s2)ccn1`, 134 to 135 °C.
With `CCN(CC)Cc1cc(C(=O)c2ccc(Cl)cc2)cc(C(C)(C)C)c1O`, the melting point is 95 to 96.5 °C.
Compound `CCc1nc(/C=C/c2cn(-c3ccccc3)nc2OCc2cc(OCc3nc(-c4ccc(CC(=O)O)cc4)oc3C)no2)cs1` displayed a melting point of 156 to 158 °C.
For `CC1(c2c[nH]cn2)CCCCC1`, the melting point lay in the range of 73 to 75 °C.
For `COC(=O)c1cc(C)c(C(=O)OC)c(OC)c1` the value was 98 to 99 °C; for `CC(C)c1cc2ncnn2nc1OCCOCCN1CCN(C(c2ccccc2)c2ccccc2)CC1`, 119 to 120 °C.
`NS(=O)(=O)c1c(CF)nsc1OCC(F)(F)F` gave a melting point of 70 to 73 °C.
To `COc1ccc(-c2nc3cc(Cl)cc(C#CCN(O)C(=O)OC(C)(C)C)c3o2)cc1OC1CCCC1` belongs 157 to 161 °C.
For `CC(=O)c1ccc(S(=O)(=O)Nc2ccc(Cl)cn2)cc1` the value was 181 to 182 °C; for `CC(=O)N1CCN(C(=O)C2(C#N)Nc3cc(C)c(-c4ccccc4)c(N4CC[C@H](N(C)C)C4)c3O2)CC1` (stereo partly specified), 102 to 105 °C; for `Cc1cn(C)c(=O)n(-c2cc(C(=O)OC(C)C)c(Cl)cc2F)c1=O`, 177 to 180 °C.
To `COC(=O)c1c(C2=CC(=O)c3cccc(O)c3C2=O)c(C)n(C)c1C` belongs 178 to 180 °C.
`CC(=O)NC(C(=O)O)C1c2ccccc2CCc2ccccc21` (stereo unspecified) displayed a melting point of 220 to 223 °C.
For the compound `COCC(C)(C)c1cc(N)no1`, the melting point was in the range of 96 to 99 °C.
For `COc1ccc2nc(-c3ccc(OC)c(F)c3)c(Cl)c(Br)c2c1` the value was 197 to 199 °C.
